We go through one molecule from patent publication US20190282498A1, “FREEZE-DRIED PROBIOTIC FOODSTUFFS” (IMAGILIN TECHNOLOGY, LLC, priority 2018, published 2019).

SMILES strings stand for the structures.

This assay concerns E. coli. The experiment in a line: Survival of E. coli with amoxicillin (comparison, data not shown). The class given is cell-based. The conditions noted are these: 500 μg/ml of amoxicillin. As for the experimental part: In order to determine whether freeze-drying interfered with this antibiotic compatibility, Pediococcus probiotic freeze-dried products were exposed amoxicillin at 10 μg/ml, 50 μg/ml, 100 μg/ml, and 500 μg/ml, and incubated at 45° C. for […] to see if any survival of Pediococcus acidilactici NRRL B-50517. […] For comparison, E. coli had 0% survival at 500 μg/ml of amoxicillin (data not shown).

As to `CC1(C)S[C@@H]2[C@H](NC(=O)[C@H](N)c3ccc(O)cc3)C(=O)N2[C@H]1C(=O)O` [amoxicillin], the “survival of E. coli” value worked out at 0%.
